The subject of data set [1] is rat partial-meniscectomy models. The data set can be described thus: Pharmacological test on rat partial-meniscectomy models. The data set is classed as in vivo. Conditions: 50 mg/kg, orally six times per week for 3 weeks, SD (IGS) male rats. The source says: SD (IGS) male rats aged 6 weeks (purchased from Charles River Japan Inc.) were used. The hair on the knee joint portion of right hind leg of each rat was shaved with a hair clipper under etherisation, and then the skin on the joint side of the lateral collateral ligament was incised along the ligament. Subsequently, the fascia was incised and the lateral collateral ligament was resected in a length of about 3 mm. Thereafter, the medial meniscus was exposed and the matters adhering to the meniscus were removed. The meniscus was picked up with tweezers and a part of the meniscus was cut off along the tweezers with microscissors. The fascia and the skin were sutured. One week after the above treatment, the administration of each test compound was started. The volume of the test compound administered was 10 ml/kg (solvent: 0.5% methyl cellulose) and the test compound was orally administered six times per week for 3 weeks. After the body weight was measured, the shinbone of the right hind leg was collected and fixed in 10% neutral buffered formalin. […] The average of scores for rats in each group was calculated and the degree of chondrodegeneration of a pathosis control group was taken as 100%. The chondrodegeneration inhibition rate of each compound was calculated by the following equation: Inhibition rate=1−(average score value of drug-treated group/score value of control group)×100

A further data set concerns the target T1, human MMP-13 (Homo sapiens, UniProt P45452).
T1 construct: made in house; host or cells: COS-1 cells (pcDNA I vector), culture supernatant
Briefly: Inhibitory activity against MMP-13 (fluorogenic MCA substrate). The settings on record: activated human MMP-13, 37° C. for 12 hours. The data set is classed as biochemical. From the text:
As MMP-13, there was used one which had been prepared by genetic engineering (using a well-known human chondrocyte cDNA library as a template, cDNA fragments were amplified by PCR by the use of primers 5′-[…]-3′ (SEQ ID NO: 1) and 5′-[…]-3′ (SEQ ID NO: 2) and each of the cDNA fragments amplified was inserted in a vector pcDNA I, and the vector was introduced into COS-1 cells derived from Afurikamidorizaru kidney, followed by culture and the recovery of the supernatant of a culture medium) on the basis of the well-known genetic base sequence of human MMP-13 (J. Biol. Chem., 269 (24), 16766-16773 (1994)) and had been activated by maintaining the thus prepared MMP-13 at 37° C. for 2 hours in the presence of 1 mM mercury 4-aminophenylacetate.
Inhibitory activity against human MMP-13 was measured according to the method of C. G. Knight et al. (FEBS Lett., 296 (3), 263-266 (1992)).
That is, 45 μl of assay buffer (0.1M Tris-hydrochloric acid, 0.1M sodium chloride, 0.01M calcium chloride, 0.05% Brigy 35, pH=7.5) was placed in a 96-well micro-titer plate for fluorometry, and 5 μl of a solution of a test compound in dimethyl sulfoxide was added thereto. […] After the micro-titer plate was maintained at 37° C. for 12 hours to carry out the reaction, fluorescence was measured with the fluorescence plate reader to measure the residual enzyme activity.

The structures appear in SMILES notation. Where a name gives a salt, the structure may show the parent alone.

By melting point is commonly meant the temperature of the solid-liquid transition. Usually IC50 stands for the point on the concentration scale where inhibition reaches its midpoint. The low end stands for greater potency, the high end for weaker potency.

Consider `CCOC(=O)c1ccc2c(c1)N(CC(=O)NO)C(=O)[C@H](CCCc1ccc(OC)cc1)S2` (as salt: TFA) [Example 7, (−)-Ethyl 4-[2-(hydroxyamino)-2-oxoethyl]-2-[3-(4-methoxyphenyl)propyl]-3-oxo-3,4-dihydro-2H-1,4-benzothiazine-6-carboxylate], for which the melting point is 143.5 to 144.5 °C.

For the compound `CCOC(=O)c1ccc2c(c1)N(CC(=O)NO)C(=O)[C@H](CCCc1ccc(OC)cc1)S2` [Example 7, (−)-Ethyl 4-[2-(hydroxyamino)-2-oxoethyl]-2-[3-(4-methoxyphenyl)propyl]-3-oxo-3,4-dihydro-2H-1,4-benzothiazine-6-carboxylate], in data set [1], the chondrodegeneration inhibition rate was determined as 52%.

`COc1ccc(CCC[C@@H]2Sc3ccc(C(=O)O)cc3N(CC(=O)NO)C2=O)cc1` [Example 14, (−)-4-[2-(Hydroxyamino)-2-oxoethyl]-2-[3-(4-methoxyphenyl)propyl]-3-oxo-3,4-dihydro-2H-1,4-benzothiazine-6-carboxylic acid] gave a concentration for half-maximal inhibition (IC50) against human MMP-13 of 44 nM.

The values above are taken from US7879843B2, “Benzothiazin-3-one compound and intermediate therefor” (Dainippon Sumitomo Pharma Co., Ltd., priority 2004, dated 2011).
